Experimental data as given in paper PMC10825133, “Repurposing proteasome inhibitors for improved treatment of triple-negative breast cancer” (Cell Death Discovery, 2024).
Like-named read-outs stand apart in the source and are kept apart here. Residues, ends and D or L forms follow the SMILES beside them. *: point of attachment. Cbz = O=C(OCc1ccccc1)*

What was measured:
Experiment in all cases: Resazurin-based cell viability assay, monotherapy drug screen
Design in all cases: species or system human; AUC: scale not given here
[1] = test system: HCC1806 cells; details: for AUC: area under the dose response curve, 24 h; for GRmax: drug efficacy at highest tested dose (<0 cytotoxic, 0 cytostatic, >0 partial growth inhibition); for IC50: Homo sapiens
Experimental: (§1) Eighteen pharmaceutical compounds were purchased from Selleckchem. […] The stock solutions were stored at -80°C. […] New drug plates were prepared for each drug screen.
(§2) To determine the optimal seeding density and ensure that the cells were in the exponential phase during the duration of the experiment (approx. 52h), each cell line (BT-549, CAL-148, HCC1806, HCC38, HCC70, MCF-10A, MCF-7, MDA-MB-436, MDA-MB-453, and MDA-MB-468) was seeded at different concentrations (1000 to 16000 cells) per 96-well, as previously described. Cell viability was measured daily (day 0 [plating day] to day 4) using 0.2 mg/ml resazurin solution prepared from resazurin sodium salt (Fisher Scientific) dissolved in sterile 1xPBS (ThermoFisher Scientific). Before use, the resazurin solution was brought to RT before 10 µl (10% of cell medium volume) was added to each 96-well and incubated for 4h at 37°C. The absorbance was measured with a 560 nm excitation filter and a 615 nm emission filter in a Wallac 1420 VICTOR2™ microplate reader (Perkin Elmer). The slope of the curve was used to determine the optimal seeding density, i.e., the highest seeding density with linear growth between days 1 and 3.

[2] = test system: MDA-MB-468 cells; details: for IC50: Homo sapiens; for AUC: area under the dose response curve, 24 h
Experimental: as §1, §2

[3] = test system: MDA-MB-453 cells; details: for IC50: Homo sapiens; for AUC: area under the dose response curve, 24 h
Experimental: as §1, §2

[4] = test system: HCC70 cells; details: for AUC: area under the dose response curve, 24 h; for GRmax: drug efficacy at highest tested dose (<0 cytotoxic, 0 cytostatic, >0 partial growth inhibition); for IC50: Homo sapiens
Experimental: as §1, §2

[5] = test system: MCF-10A cells; details: for IC50: Homo sapiens; for AUC: area under the dose response curve
Experimental: as §1, §2

[6] = test system: MCF-7 cells; details: for IC50: Homo sapiens; for AUC: area under the dose response curve, 24 h; for GRmax: drug efficacy at highest tested dose (<0 cytotoxic, 0 cytostatic, >0 partial growth inhibition)
Experimental: as §1, §2

[7] = test system: MDA-MB-436 cells; details: for IC50: Homo sapiens; for AUC: area under the dose response curve, 24 h; for GRmax: drug efficacy at highest tested dose (<0 cytotoxic, 0 cytostatic, >0 partial growth inhibition)
Experimental: as §1, §2

[8] = test system: BT-549 cells; details: for AUC: area under the dose response curve, 24 h; for GRmax: drug efficacy at highest tested dose (<0 cytotoxic, 0 cytostatic, >0 partial growth inhibition); for IC50: Homo sapiens
Experimental: as §1, §2

[9] = test system: HCC38 cells; details: for AUC: area under the dose response curve, 24 h; for GRmax: drug efficacy at highest tested dose (<0 cytotoxic, 0 cytostatic, >0 partial growth inhibition); for IC50: Homo sapiens
Experimental: as §1, §2

[10] = 24 h drug treatment, read-out: IC50
[11] = growth rate inhibition concentration at GR(c) = 0.5, 24 h, read-out: GR50 (the source's name)
[12] = MCF7, MCF-7, growth rate inhibition concentration at GR(c) = 0.5, 24 h, read-out: GR50 (the source's name)
[13] = MDA-MB-436, growth rate inhibition concentration at GR(c) = 0.5, 24 h, read-out: GR50 (the source's name)
[14] = HCC38, growth rate inhibition concentration at GR(c) = 0.5, 24 h, read-out: GR50 (the source's name)

Question: Which results are given for `CC(C)C[C@H](NC(=O)CNC(=O)c1cc(Cl)ccc1Cl)B(O)O` [MLN 2238, MLN-2238]?
Answer: AUC ([1]; HCC1806): 0.75; GRmax ([1]; HCC1806): 0.39; IC50 ([1]; HCC1806, 24 h drug treatment, read-out: IC50): 3 µM; IC50 ([1]; HCC1806, growth rate inhibition concentration at GR(c) = 0.5, 24 h, read-out: GR50 (the source's name)): 3.3 µM; IC50 ([2]; MDA-MB-468, 24 h drug treatment, read-out: IC50): 0.24 µM; IC50 ([2]; MDA-MB-468, growth rate inhibition concentration at GR(c) = 0.5, 24 h, read-out: GR50 (the source's name)): 0.055 µM; AUC ([2]; MDA-MB-468): 0.67; IC50 ([3]; MDA-MB-453, 24 h drug treatment, read-out: IC50): 4.3 µM; IC50 ([3]; MDA-MB-453, growth rate inhibition concentration at GR(c) = 0.5, 24 h, read-out: GR50 (the source's name)): 0.64 µM; AUC ([3]; MDA-MB-453): 0.81; AUC ([4]; HCC70): 0.78; GRmax ([4]; HCC70): −0.36; IC50 ([4]; HCC70, 24 h drug treatment, read-out: IC50): 2.7 µM; IC50 ([4]; HCC70, growth rate inhibition concentration at GR(c) = 0.5, 24 h, read-out: GR50 (the source's name)): 0.74 µM; IC50 [5, 10]: 0.41 µM; IC50 [5, 11]: 0.076 µM; AUC ([5]; 24 h): 0.72; IC50 [6, 12]: 0.34 µM; AUC ([6]; MCF-7): 0.87; GRmax ([6]; MCF-7): −0.29; IC50 [7, 13]: 0.16 µM; AUC ([7]; MDA-MB-436): 0.88; GRmax ([7]; MDA-MB-436): −0.78; AUC ([8]; BT-549): 0.75; GRmax ([8]; BT-549): 0.40; IC50 ([8]; BT-549, growth rate inhibition concentration at GR(c) = 0.5, 24 h, read-out: GR50 (the source's name)): 0.14 µM; AUC ([9]; HCC38): 0.59; GRmax ([9]; HCC38): −0.99; IC50 ([9]; HCC38, 24 h drug treatment, read-out: IC50): 0.11 µM; IC50 [9, 14]: 0.071 µM

Question: Which results are given for `CC(C)C[C@@H](C=O)NC(=O)[C@H](CC(C)C)NC(=O)[C@H](CC(C)C)NC(=O)OCc1ccccc1` [MG 132, MG-132] (Cbz-Leu-Leu-Leu-aldehyde)?
Answer: AUC ([1]; HCC1806): 0.82; GRmax ([1]; HCC1806): 0.31; IC50 ([1]; HCC1806, 24 h): 3.1 µM; IC50 ([1]; HCC1806, 24 h, read-out: GR50 (µM)): 2.5 µM; IC50 ([2]; MDA-MB-468, 24 h): 1.4 µM; IC50 ([2]; MDA-MB-468, 24 h, read-out: GR50 (µM)): 0.61 µM; AUC ([2]; MDA-MB-468): 0.81; IC50 ([3]; MDA-MB-453, 24 h, read-out: GR50 (µM)): 1.7 µM; AUC ([3]; MDA-MB-453): 0.87; AUC ([4]; HCC70): 0.87; GRmax ([4]; HCC70): −0.40; IC50 ([4]; HCC70, 24 h): 3.7 µM; IC50 ([4]; HCC70, 24 h, read-out: GR50 (µM)): 2.1 µM; IC50 ([5]; 24 h): 0.94 µM; IC50 ([5]; 24 h, read-out: GR50 (µM)): 0.4 µM; AUC ([5]; 24 h): 0.78; IC50 ([6]; MCF7, 24 h, read-out: GR50 (µM)): 0.57 µM; AUC ([6]; MCF-7): 0.87; GRmax ([6]; MCF-7): −0.32; IC50 ([7]; MDA-MB-436, 24 h, read-out: GR50 (µM)): 0.29 µM; AUC ([7]; MDA-MB-436): 0.86; GRmax ([7]; MDA-MB-436): −0.88; AUC ([8]; BT-549): 0.83; GRmax ([8]; BT-549): 0.26; IC50 ([8]; BT-549, 24 h): 4.3 µM; IC50 ([8]; BT-549, 24 h, read-out: GR50 (µM)): 1.4 µM; AUC ([9]; HCC38): 0.71; GRmax ([9]; HCC38): −0.98; IC50 ([9]; HCC38, 24 h): 0.57 µM; IC50 ([9]; HCC38, 24 h, read-out: GR50 (µM)): 0.37 µM

Question: For `CC(=O)O[C@@]12CO[C@@H]1C[C@H](O)[C@@]1(C)C(=O)[C@H](O)C3=C(C)[C@@H](OC(=O)[C@H](O)[C@@H](NC(=O)OC(C)(C)C)c4ccccc4)C[C@@](O)([C@@H](OC(=O)c4ccccc4)[C@H]21)C3(C)C` [Docetaxel], which AUC ([1]; HCC1806) is on record?
Answer: 0.64

Question: And the GRmax ([1]; HCC1806)?
Answer: 0.56

Question: And the AUC ([2]; MDA-MB-468)?
Answer: 0.77

Question: What about the AUC ([3]; MDA-MB-453) of the same compound?
Answer: 0.87

Question: What about the AUC ([4]; HCC70) of the same compound?
Answer: 0.83

Question: What about the GRmax ([4]; HCC70) of the same compound?
Answer: 0.72

Question: And the IC50 [5, 10]?
Answer: 0.05 µM

Question: And the IC50 [5, 11]?
Answer: 0.009 µM

Question: What about the AUC ([5]; 24 h) of the same compound?
Answer: 0.63

Question: And the IC50 [6, 12]?
Answer: 0.0065 µM

Question: And the AUC ([6]; MCF-7)?
Answer: 0.75

Question: And the GRmax ([6]; MCF-7)?
Answer: −0.44

Question: What about the IC50 [7, 13] of the same compound?
Answer: 0.005 µM

Question: What about the AUC ([7]; MDA-MB-436) of the same compound?
Answer: 0.69

Question: And the GRmax ([7]; MDA-MB-436)?
Answer: −0.81

Question: And the AUC ([8]; BT-549)?
Answer: 0.79

Question: What about the GRmax ([8]; BT-549) of the same compound?
Answer: 0.61

Question: And the AUC ([9]; HCC38)?
Answer: 0.78

Question: And the GRmax ([9]; HCC38)?
Answer: 0.17

Question: And the IC50 [9, 14]?
Answer: 0.013 µM
